From PubChem BioAssay (NCI) come the findings set out here.

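Results reflect a 48-hour exposure of cells in 96-well plates to compound at five concentrations. Definition used: TGI = concentration required for complete inhibition of growth.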

Test systems include 786-0 renal; PC-3 prostate; OVCAR-8 ovarian; HL-60(TB) leukemia; HCT-116 colon; TK-10 renal; UO-31 renal; OVCAR-5 ovarian; MOLT-4 leukemia; DU-145 prostate; SK-MEL-5 melanoma.
What all share (assay): NCI tumour cell line growth inhibition, 48 h

Consider `CN(NC(=O)CCCl)C1=NCCN1`, for which the TGI in the test on 786-0 renal, with PC-3 prostate, with OVCAR-8 ovarian, with HL-60(TB) leukemia, in the test on HCT-116 colon and with TK-10 renal was above 100 µM throughout. For the same compound, the TGI in the test with UO-31 renal, in the test on OVCAR-5 ovarian, in the test on MOLT-4 leukemia, with DU-145 prostate and in the test on SK-MEL-5 melanoma was above 100 µM in each case.
With `COc1cc(CCCOC(=O)/C=C/c2ccc(O)c(O)c2)cc(O)c1O`, the TGI was above 100 µM in the test with 786-0 renal; above 100 µM in the test on PC-3 prostate; above 100 µM with OVCAR-8 ovarian; 84.1 µM with HL-60(TB) leukemia; 34.9 µM in the test on HCT-116 colon; above 100 µM in the test on TK-10 renal. Moreover, the TGI with UO-31 renal, with OVCAR-5 ovarian, with MOLT-4 leukemia, with DU-145 prostate and in the test with SK-MEL-5 melanoma was above 100 µM each time.
Consider `CC(C)NC(=O)CN1CCN(C2=CC(=O)c3c(O)ccc(O)c3C2=O)CC1`, for which the TGI in the test with 786-0 renal was 42.4 µM; in the test on PC-3 prostate, above 80.5 µM; with OVCAR-8 ovarian, above 54 µM; with HL-60(TB) leukemia, 5.99 µM; with HCT-116 colon, 9.79 µM; in the test with TK-10 renal, 31.5 µM. Moreover, the TGI in the test on UO-31 renal is 33.2 µM; in the test on OVCAR-5 ovarian, 33.5 µM; in the test on MOLT-4 leukemia, above 100 µM; in the test with DU-145 prostate, 29.7 µM; in the test with SK-MEL-5 melanoma, 7.78 µM.
Take `COCC1OC(OC2C3=C(C(C)C)CCC3(C)/C=C3\C(CCC3(O)COC)C(C)C2O)C(O)C2OC3OC12OC3(C)C1CO1` (configuration not stated): the TGI was above 100 µM in the test with 786-0 renal; above 100 µM with PC-3 prostate; above 100 µM in the test on OVCAR-8 ovarian; 54.1 µM in the test with HL-60(TB) leukemia; above 100 µM in the test on HCT-116 colon; above 100 µM with TK-10 renal. The TGI in the test with UO-31 renal was 72.1 µM; in the test with OVCAR-5 ovarian, above 100 µM; in the test with MOLT-4 leukemia, 54 µM; in the test on DU-145 prostate, above 100 µM; in the test on SK-MEL-5 melanoma, 67.3 µM.
With `CC1=C2C(=O)[C@H]3[C@@H](CC=C4C[C@@H](O)CC[C@@]43C)[C@@H]2CC[C@]12O[C@@H]1C[C@H](C)CN[C@H]1[C@H]2C`, the TGI is above 57.5 µM in the test with 786-0 renal; above 100 µM in the test on PC-3 prostate; above 69.1 µM in the test with OVCAR-8 ovarian; above 65.5 µM with HL-60(TB) leukemia; above 68.5 µM in the test on HCT-116 colon; above 53.8 µM in the test on TK-10 renal. Further, the TGI was above 54.3 µM in the test with UO-31 renal; above 100 µM with OVCAR-5 ovarian; above 100 µM in the test on MOLT-4 leukemia; above 100 µM in the test on DU-145 prostate; above 61.9 µM with SK-MEL-5 melanoma.
Regarding `C[C@]12CC[C@@H]3c4cc(OCC(F)(F)F)c(O)cc4C(=O)C[C@H]3[C@@H]1CC[C@@H]2O`, the TGI in the test on 786-0 renal was above 100 µM; in the test with PC-3 prostate, above 67.7 µM; in the test with OVCAR-8 ovarian, above 84.7 µM; in the test with HL-60(TB) leukemia it was 4.68 µM; in the test on HCT-116 colon it was above 100 µM; in the test on TK-10 renal it was above 100 µM. The TGI in the test with UO-31 renal is above 100 µM; in the test with OVCAR-5 ovarian it was above 85.3 µM; in the test with MOLT-4 leukemia it was above 100 µM; in the test with DU-145 prostate, above 100 µM; in the test with SK-MEL-5 melanoma it was above 82.8 µM.
`Clc1ccc(Oc2ccc(N=Cc3ccc(Cl)cc3Cl)cc2Cl)cc1`: the TGI was 63.5 µM in the test on 786-0 renal; above 100 µM in the test with PC-3 prostate; above 100 µM in the test on OVCAR-8 ovarian; 57.6 µM in the test on HL-60(TB) leukemia; above 100 µM in the test on HCT-116 colon; above 100 µM in the test on TK-10 renal. Besides, the TGI in the test with UO-31 renal, with OVCAR-5 ovarian, with MOLT-4 leukemia, with DU-145 prostate and in the test with SK-MEL-5 melanoma was above 100 µM in each case.
In the case of `CCCc1cc(=O)oc2c3c(c4c(c12)OC(C)(C)C=C4)O[C@@H](C)[C@H](C)C3=O`, the TGI in the test with 786-0 renal is 38.8 µM; in the test with PC-3 prostate, 35.4 µM; in the test with OVCAR-8 ovarian, 45.4 µM; in the test on HL-60(TB) leukemia, 33.4 µM; in the test on HCT-116 colon, 24.2 µM; with TK-10 renal it was 44.3 µM. For the same compound, the TGI in the test on UO-31 renal was 31.4 µM; in the test on OVCAR-5 ovarian, 33.2 µM; with MOLT-4 leukemia, 26.8 µM; with DU-145 prostate, 61.1 µM; in the test on SK-MEL-5 melanoma, 32.3 µM.
Regarding `COc1ccc(/C=C2\C[C@H]3[C@@H]4CCC5=C[C@@H](N6CCCC6)CC[C@]5(C)[C@H]4CC[C@]3(C)[C@H]2O)cc1`, the TGI in the test on 786-0 renal amounted to 2.94 µM; with PC-3 prostate, 8.17 µM; in the test with OVCAR-8 ovarian, 16.4 µM; in the test on HL-60(TB) leukemia, 4.21 µM; in the test on HCT-116 colon, 5.45 µM; in the test on TK-10 renal it was 7.44 µM. Also, the TGI was 3.26 µM in the test on UO-31 renal; 20.9 µM in the test on OVCAR-5 ovarian; above 45.4 µM with MOLT-4 leukemia; 20.8 µM in the test with DU-145 prostate; 2.91 µM with SK-MEL-5 melanoma.
As to `CCOC(=O)CCC(NC(=O)c1ccc(Oc2nc3ccc(C(F)(F)F)cc3nc2-c2ccccc2)cc1)C(=O)OCC` (configuration not stated), the TGI is 32.9 µM in the test with 786-0 renal; above 100 µM in the test with PC-3 prostate; above 57.7 µM in the test on OVCAR-8 ovarian; above 100 µM with HL-60(TB) leukemia; above 100 µM with HCT-116 colon; above 100 µM with TK-10 renal. Besides, the TGI in the test on UO-31 renal, with OVCAR-5 ovarian, in the test on MOLT-4 leukemia, in the test with DU-145 prostate and in the test on SK-MEL-5 melanoma was above 100 µM in each case.
In the case of `O=P(Oc1ccccc1)(Oc1ccccc1)Oc1c[nH]c2ccccc12`, the TGI came out at 33.1 µM in the test on 786-0 renal; 8.26 µM with PC-3 prostate; 47.5 µM in the test with OVCAR-8 ovarian; 44.1 µM with HL-60(TB) leukemia; 38.8 µM in the test with HCT-116 colon; 28.3 µM in the test on TK-10 renal. For the same compound, the TGI in the test with UO-31 renal was 19.7 µM; in the test with OVCAR-5 ovarian, 4.56 µM; in the test on MOLT-4 leukemia, 46.6 µM; in the test with DU-145 prostate it was above 100 µM; in the test with SK-MEL-5 melanoma, 24.8 µM.
Take `O=C1NC(Cc2c[nH]c3ccccc23)C(=O)N2C(C3CCCCC3)c3[nH]c4ccccc4c3C[C@@H]12` (some centres not stated): the TGI was found to be 28.5 µM in the test on 786-0 renal; 28.3 µM in the test on PC-3 prostate; 56.7 µM in the test on OVCAR-8 ovarian; 42.9 µM in the test on HL-60(TB) leukemia; 22.1 µM in the test with HCT-116 colon; 37.6 µM in the test with TK-10 renal. For the same compound, the TGI is 33.2 µM in the test with UO-31 renal; 43 µM with OVCAR-5 ovarian; 34.6 µM in the test on MOLT-4 leukemia; above 100 µM in the test on DU-145 prostate; 25.4 µM with SK-MEL-5 melanoma.
